Patent US20030100109A1, “Methods and compositions for in vitro germination and propagation of polygonatum cirrhifolium royle” (priority 2001, published 2003)
Values joined by “and” are separate entries in the source; they are usually repeats but may differ in a detail not shown here. Equal values may be shown once.

Key:
[1] = tested on: Polygonatum cirrhifolium Royle seeds with emerged hypocotyl; test: Synchronization of germination: release of epicotyl, coleoptile and radicle from seeds with emerged hypocotyl; format: in vivo; conditions: modified MS culture medium, 20° C., 16 hr photoperiod
Description: Germination was evaluated every three days by examining seeds for hypocotyl emergence. […] Seeds with emerged hypocotyl were transferred under aseptic conditions to the above defined basal culture medium containing gibberellic acid at 5, 25, 50 and 100 mg/L. Transferred plants were incubated in an environment having 8-16-hr days under about 2000 lux of light and about 8-16-hr nights in total darkness at a constant temperature of 20° C. ([…]) and at 50-60% RH. Illumination was provided by 40-watt cool, white fluorescent tubes. Germination synchronization as indicated by differentiated epicotyl with emergent coleoptile and radicle was recorded on daily basis. The consequent step of synchronization of germination is presented in table 3 in which epicotyl with emergent coleoptile and radicle is manifest under 8-16 hr photoperiod (light intensity 2000-3500 lux) at an incubation temperature of 20° C. (RH 50-60%). In this experiment seeds with emerged hypocotyl were transferred to the culture to modified MS basal culture medium containing of 2.2 g/L NH4NO3, 2.0 g/L KNO3, 0.44 g/l CaCl2.2H2P, 0.37 g/L MgSO4.7H20, 0.17 g/L KH2PO4, 37.25 mg/L Na2 EDTA, 27.8 mg/L FeSO4.7H20, 0.83 mg/L KI, 6.2 mg/L H3BO3, 22.3 mg/L MnSO4.4H20, 8.6 mg/L ZnSO4.7H20, 0.25 mg/L Na2MoO4.2H20, 0.025 mg/L CuSO4.5H2O, 0.025 mg/L CoCl2.6H20, 250 mg/L myo-inositol, 0.5 mg/L nicotinic acid, 0.5 mg/L pyridoxine HCl, 3 mg/L thiamine HCl, 2 mg/L glycine, 30 g/L sucrose and 7.5 g/L agar and supplemented with 4 concentrations of GA3 viz. […], 25, 50 and 100 mg/L. Cultures were incubated at 20° C. under 16 hr photoperiod in a growth chamber. there were four treatments in total and each treatment consisted of 15 replicates with 4 seeds with emerged hypocotyl in each replicate. The effect of various treatments on the release of epicotyl, coleoptile radicle and days to release/synchronization is described in table 3.100 mg/L of GA3 results in 100% synchronization after 11 days of culture.

[2] = tested on: Polygonatum cirrhifolium Royle seeds; test: Induction of germination (hypocotyl emergence) on modified MS medium with GA3 at diurnal 30/20° C. in dark; format: in vivo; conditions: modified MS culture medium, 20/30° C. in dark
Description: Ripe purplish berries from plants grown in the wild were collected and dehydrated for 15 days at room temperature (29° C.±2° C.). Seeds were collected from dehydrated berries and washed in tap water with 1-2 drops of Tween-20™ for 2 hours and rinsed three times in distilled water. Seeds were then surface sterilized with 0.1% mercuric chloride (HgCl2) for 3 minutes. Mercuric chloride was removed by washing seeds four times in sterile distilled water. Sterilized, rinsed seeds were placed on semi-solid culture medium in sterile disposable plastic Petri plates (10 cm×2 cm). Macro and micro nutrients in the basal medium were that of Murashige and Skoog's (Murashige, T. and Skoog, F. […]. Physiol Plant 15: 433 -497) but modified to contain 2.2 g/L NH4NO3, 2.0 g/L KNO3, 0.44 g/l CaCl2.2H2O, 0.37 g/L MgSO4.7H20, 0.17 g/L KH2PO4, 37.25 mg/L Na2 EDTA, 27.8 mg/L FeSO4.7H20, 0.83 mg/L KI, 6.2 mg/L H3BO3, 22.3 mg/L MnSO4.4H20, 8.6 mg/L ZnSO4.7H20, 0.25 mg/L Na2 MoO4.2H20, 0.025 mg/L CuSO4.5H2O, 0.025 mg/L CoCl2.6H20. This medium was supplemented with 250 mg/L myo-inosital, 0.5 mgl/l nicotinic acid, 0.5 mg/L pyridoxine HCl, 3 mg/L thiamine HCl, 2 mg/L glycine, 30 g/L sucrose, 7.5 g/L agar and 2, 10, 25, and 50 mg/L gibberellic acid. The pH of the medium was adjusted to 5.8 before adding agar. Medium was sterilized at 121° C. (15 lb. psi pressure) for 20 minutes. […] Seeds with emerged hypocotyl were transferred under aseptic conditions to the above defined basal culture medium containing gibberellic acid at 5, 25, 50 and 100 mg/L. Transferred plants were incubated in an environment having 8-16-hr days under about 2000 lux of light and about 8-16-hr nights in total darkness at a constant temperature of 20° C. ([…]) and at 50-60% RH. Illumination was provided by 40-watt cool, white fluorescent tubes. Germination synchronization as indicated by differentiated epicotyl with emergent coleoptile and radicle was recorded on daily basis. Tables 1 and 2 show the induction of germination as indicated by the emergence of hypocotyl at temperature of 30° C. (±2° C.; dark; RH 50-60%) and diurnal temperature of 30/20° C. (±2° C.; dark; RH 50-60%). In this experiment also there were 4 treatments with varying levels of GA3 2-50 mg/L. Supplemented to the modified MS basal culture medium containing of 2.2 g/L NH4NO3, 2.0 g/L KNO3, 0.44 g/l CaCl2.2H2O, 0.37 g/L MgSO4.7H20, 0.17 g/L KH2PO4, 37.25 mg/L Na2 EDTA, 27.8 mg/L FeSO4.7H20, 0.83 mg/L KI, 6.2 mg/L H3BO3, 22.3 mg/L MnSO4.4H20, 8.6 mg/L ZnSO4.7H20, 0.25 mg/L Na2 MoO4.2H20, 0.025 mg/L CuSO4.5H2O, 0.025 mg/L CoCl2.6H20, […], 0.5 mg/L nicotinic acid, 0.5 mg/L pyridoxine HCl, 3 mg/L thiamine HCl, 2 mg/L glycine, 30 g/L sucrose and 7.5 g/L agar. Cultures were incubated under diurnal temperature regime of 30/20° C. (dark). Each treatment consisted of 15 replicates with 5 seeds in each. Germination is induced in all the treatments (table 2). Maximum germination of 62.12% is obtained at 50 mg/L Of GA3.

C=C1C[C@]23C[C@@]1(O)CC[C@H]2[C@@]12C=C[C@H](O)[C@@](C)(C(=O)O1)[C@H]2[C@@H]3C(=O)O [GA3, gibberellic acid]
Days to release epicotyl, coleoptile & radicle ([1]; GA3 10 mg/L): 21 days | Percent seeds with epicotyl, coleoptile & radicle ([1]; GA3 10 mg/L): 23.71 ± 2.00% | Days to release epicotyl, coleoptile & radicle ([1]; GA3 25 mg/L): 18 days | Percent seeds with epicotyl, coleoptile & radicle ([1]; GA3 25 mg/L): 78.23 ± 3.11% | Days to release epicotyl, coleoptile & radicle ([1]; GA3 50 mg/L): 14 days | Percent seeds with epicotyl, coleoptile & radicle ([1]; GA3 50 mg/L): 100.00 ± 0.00% | Days to release epicotyl, coleoptile & radicle ([1]; GA3 100 mg/L): 11 days | Percent seeds with epicotyl, coleoptile & radicle ([1]; GA3 100 mg/L): 100% and 100.00 ± 0.00% | Duration of germination ([2]; GA3 2 mg/L): 32-73 | Percent germination ([2]; GA3 2 mg/L): 12.41 ± 6.17% | Duration of germination ([2]; GA3 10 mg/L): 34-72 | Percent germination ([2]; GA3 10 mg/L): 18.06 ± 4.32% | Duration of germination ([2]; GA3 25 mg/L): 27-63 | Percent germination ([2]; GA3 25 mg/L): 46.00 ± 5.11% | Duration of germination ([2]; GA3 50 mg/L): 23-58 | Percent germination ([2]; GA3 50 mg/L): 62.12% and 62.12 ± 3.66%
